Converted amounts (≈) assume the structure as drawn. A value given as a limit tells only on which side of the number the result lay.

Data set [1] in a line: antibacterial activity and acidic property of reduced PB-6042A: antibacterial activity. The data set is classed as cell-based. As to conditions: after H2/PtO2 reduction.
Data set [2] is described as follows: acidic property of reduced PB-6042A. As to conditions: after H2/PtO2 reduction.
Data set [3] relates to P. asaccharolyticus ATCC14963. In words: MIC against anaerobic bacteria. Format: cell-based. To be noted: Peptoniphilus asaccharolyticus; P. asaccharolyticus ATCC14963; read-out: MIC.
The subject of another data set is P. anaerobius B-38. In words: MIC against anaerobic bacteria. Format: cell-based. As to conditions: Peptostreptococcus anaerobius, B38.
The test system of another data set is P. prevotii ATCC9321. In words: MIC against anaerobic bacteria. To be noted: Anaerococcus prevotii; P. prevotii ATCC9321; read-out: MIC. Format: cell-based.
Another data set relates to P. micros VPI5464-1. Nature of the data set: MIC against anaerobic bacteria. The data set is classed as cell-based. As to conditions: Parvimonas micra, VPI54641.
In data set [4] the test system is S. constellatus ATCC27823. Nature of the data set: MIC against anaerobic bacteria. The data set is classed as cell-based. To be noted: Streptococcus constellatus.
The subject of the next data set is E. lentum II-1. In words: MIC against anaerobic bacteria. The data set is classed as cell-based. To be noted: Eggerthella lenta, II1.
The test system of the next data set is E. limosum ATCC8486. Nature of the data set: MIC against anaerobic bacteria. Format: cell-based. To be noted: Eubacterium limosum, ATCC8486.
For another data set, the system named is E. aerofaciens ATCC25986. Nature of the data set: MIC against anaerobic bacteria. The data set is classed as cell-based. As to conditions: Collinsella aerofaciens; E. aerofaciens ATCC25986; read-out: MIC.
Another data set has as its system P. acens ATCC11827. In words: MIC against anaerobic bacteria. The data set is classed as cell-based.
Another data set has as its system B. adolescentis JCM1250. Nature of the data set: MIC against anaerobic bacteria. Format: cell-based. As to conditions: Bifidobacterium adolescentis; B. adolescentis JCM1250; read-out: MIC.
Another data set deals with B. bifidum JCM1122. Nature of the data set: MIC against anaerobic bacteria. To be noted: Bifidobacterium bifidum; B. bifidum JCM1122; read-out: MIC. The data set is classed as cell-based.
The subject of a further data set is B. longum ATCC15707. In words: MIC against anaerobic bacteria. The data set is classed as cell-based. To be noted: Bifidobacterium longum, ATCC15707.
The next data set has as its system L. plantarum JCM1100. Nature of the data set: MIC against anaerobic bacteria. Format: cell-based. As to conditions: Lactiplantibacillus plantarum; L. plantarum JCM1100; read-out: MIC.
The next data set deals with L. ruminis ATCC27780. Nature of the data set: MIC against anaerobic bacteria. Format: cell-based.
A further data set has as its system C. perfringens SAKAI. Nature of the data set: microbe, parasite or virus in culture. Format: cell-based. As to conditions: Clostridium perfringens.
A further data set relates to C. perfringens ATCC13124. Nature of the data set: microbe, parasite or virus in culture. Format: cell-based. To be noted: Clostridium perfringens.
Another data set relates to C. difficile ATCC17857. Nature of the data set: MIC against anaerobic bacteria. Format: cell-based. As to conditions: Clostridioides difficile.
Another data set has as its system V. parvula ATCC10790. In words: MIC against anaerobic bacteria. The data set is classed as cell-based. To be noted: Veillonella parvula.
For a further data set, the system named is B. fragilis GM7000. Nature of the data set: MIC against anaerobic bacteria. Format: cell-based. To be noted: Bacteroides fragilis; B. fragilis GM7000; read-out: MIC.
The next data set deals with B. fragilis ATCC25285. In words: MIC against anaerobic bacteria. The data set is classed as cell-based. To be noted: Bacteroides fragilis, ATCC25285.
In data set [5] the test system is B. thetaiotaomicron WAL3304. Nature of the data set: MIC against anaerobic bacteria. The data set is classed as cell-based. To be noted: Bacteroides thetaiotaomicron; B. thetaiotaomicron WAL3304; read-out: MIC.
Another data set has as its system B. vulgatus ATCC29327. In words: MIC against anaerobic bacteria. Format: cell-based. To be noted: Phocaeicola vulgatus; B. vulgatus ATCC29327; read-out: MIC.
In another data set the test system is B. distasonis JU-11-1. Nature of the data set: MIC against anaerobic bacteria. The data set is classed as cell-based. To be noted: Parabacteroides distasonis, JU111; B. distasonis JU-11-1; read-out: MIC.
The next data set relates to B. ovatus 2505. In words: MIC against anaerobic bacteria. The data set is classed as cell-based. As to conditions: Bacteroides ovatus; B. ovatus 2505; read-out: MIC.
Data set [6] concerns B. melaninogenicus GAI0413. In words: MIC against anaerobic bacteria. To be noted: B. melaninogenicus GAI0413; read-out: MIC. The data set is classed as cell-based.
The subject of another data set is F. varium ATCC8501. In words: MIC against anaerobic bacteria. To be noted: Fusobacterium varium. Format: cell-based.
A further data set relates to F. nucleatum ATCC25586. In words: MIC against anaerobic bacteria. The data set is classed as cell-based. To be noted: Fusobacterium nucleatum.
The test system of another data set is F. mortiferum ATCC9817. Nature of the data set: MIC against anaerobic bacteria. Format: cell-based. As to conditions: Fusobacterium mortiferum; F. mortiferum ATCC9817; read-out: MIC.
A further data set relates to anaerobic bacteria. In words: antibacterial activity against anaerobic bacteria (summary). Format: cell-based. To be noted: in words.
Data set [7] is described as follows: filter paper electrophoresis and bioautography (acidic property). Format: physicochemical. From the text: Other physicochemical properties of PB-6042s in the form of sodium salt are listed below.
A further data set has as its system S. aureus FDA JC-1. In words: MIC against aerobic bacteria. To be noted: Staphylococcus aureus, FDAJC1.
The subject of another data set is S. aureus SR14(R). Nature of the data set: MIC against aerobic bacteria. As to conditions: Staphylococcus aureus.
The test system of a further data set is S. pyogenes C-203. In words: MIC against aerobic bacteria. As to conditions: Streptococcus pyogenes, C203.
Another data set has as its system S. pneumoniae TYPE 1. In words: MIC against aerobic bacteria. To be noted: Streptococcus pneumoniae, TYPE1.
In another data set the test system is E. coli NIHJ JC-2. Nature of the data set: MIC against aerobic bacteria. As to conditions: Escherichia coli, NIHJJC2.
The next data set deals with K. pneumoniae SR1. Nature of the data set: MIC against aerobic bacteria. To be noted: Klebsiella pneumoniae.
Another data set deals with P. vulgaris CN-329. Nature of the data set: MIC against aerobic bacteria. To be noted: Proteus vulgaris, CN329.
In another data set the test system is P. aeruginosa A25619. In words: MIC against aerobic bacteria. As to conditions: Pseudomonas aeruginosa.

On to `CCCCCCCCCC(=O)C1=C(O)C(C)OC1=O` (stereo not shown) [reduced product], for which the “antibacterial activity of reduced product” value in data set [1] was “maintained antibacterial activity”. In data set [2], the “acidic property of reduced product” value is “maintained antibacterial activity and acidic property”.

With `C=C1OC(=O)C(C(=O)CCCC/C=C\CCCCCCC)=C1O` [PB-6042D], the MIC in data set [3] was 6.25 µg/mL (≈ 19.5 µM); in the data set on P. anaerobius B-38 it was 1.56 µg/mL (≈ 4.87 µM); with P. prevotii ATCC9321 it was 6.25 µg/mL (≈ 19.5 µM); with P. micros VPI5464-1 it was 0.78 µg/mL (≈ 2.43 µM); in [4] it was 1.56 µg/mL (≈ 4.87 µM); in the data set with E. lentum II-1 it was 3.13 µg/mL (≈ 9.77 µM). Further, the MIC is 3.13 µg/mL (≈ 9.77 µM) against E. limosum ATCC8486; 6.25 µg/mL (≈ 19.5 µM) with E. aerofaciens ATCC25986; 1.56 µg/mL (≈ 4.87 µM) in the data set on P. acens ATCC11827; 6.25 µg/mL (≈ 19.5 µM) in the data set with B. adolescentis JCM1250; 6.25 µg/mL (≈ 19.5 µM) in the data set on B. bifidum JCM1122; 3.13 µg/mL (≈ 9.77 µM) against B. longum ATCC15707. Also, the MIC in the data set on L. plantarum JCM1100 is 6.25 µg/mL (≈ 19.5 µM); against L. ruminis ATCC27780, 3.13 µg/mL (≈ 9.77 µM); with C. perfringens SAKAI, 3.13 µg/mL (≈ 9.77 µM); in the data set on C. perfringens ATCC13124, 3.13 µg/mL (≈ 9.77 µM); against C. difficile ATCC17857, 1.56 µg/mL (≈ 4.87 µM); against V. parvula ATCC10790 it was > 100 µg/mL. Moreover, the MIC in the data set on B. fragilis GM7000 worked out at 6.25 µg/mL (≈ 19.5 µM); with B. fragilis ATCC25285 it was 3.13 µg/mL (≈ 9.77 µM); in [5], 6.25 µg/mL (≈ 19.5 µM); with B. vulgatus ATCC29327, 12.5 µg/mL (≈ 39 µM); with B. distasonis JU-11-1 it was 12.5 µg/mL (≈ 39 µM); in the data set on B. ovatus 2505, 12.5 µg/mL (≈ 39 µM). The MIC in data set [6] was 12.5 µg/mL (≈ 39 µM); with F. varium ATCC8501, > 100 µg/mL; in the data set on F. nucleatum ATCC25586 it was 25 µg/mL (≈ 78 µM); with F. mortiferum ATCC9817 it was > 100 µg/mL; against S. aureus FDA JC-1 it was > 100 µg/mL; with S. aureus SR14(R), 12.5 µg/mL (≈ 39 µM). For the same molecule, the MIC in the data set on S. pyogenes C-203 is 12.5 µg/mL (≈ 39 µM); against S. pneumoniae TYPE 1, 12.5 µg/mL (≈ 39 µM); against E. coli NIHJ JC-2, > 100 µg/mL; against K. pneumoniae SR1, > 100 µg/mL; with P. vulgaris CN-329, > 100 µg/mL; in the data set with P. aeruginosa A25619 it was > 100 µg/mL. In addition, the “growth inhibition of anaerobic bacteria” value with anaerobic bacteria is reported as “inhibit the growth of anaerobic bacteria, selectively”. In addition, the acidic property result in data set [7] was “acidic substances”.

For the origin of these results see patent publication US5045458A, “Antibiotics PB-6042S” (Shionogi & Co., Ltd., priority 1988, dated 1991).
